Results from article PMC10302398, “Mechanistic Insights into the Antibiofilm Mode of Action of Ellagic Acid” (Pharmaceutics, 2023).

How the values were obtained:
[1] = target: T1, WrbA (NADH:quinone oxidoreductase WrbA; WrbAJW) (Escherichia coli, UniProt P0A8G6); experiment: MST (Kd […]); also SPR (Kd […]) and NADH:DCPIP oxidoreductase inhibition (IC50 […]); type: binding
[2] = target: T1, WrbA (NADH:quinone oxidoreductase WrbA; WrbAJW); experiment: NADH:DCPIP oxidoreductase activity assay of purified WrbAJW; type: biochemical

T1 sequence (P0A8G6 2-198): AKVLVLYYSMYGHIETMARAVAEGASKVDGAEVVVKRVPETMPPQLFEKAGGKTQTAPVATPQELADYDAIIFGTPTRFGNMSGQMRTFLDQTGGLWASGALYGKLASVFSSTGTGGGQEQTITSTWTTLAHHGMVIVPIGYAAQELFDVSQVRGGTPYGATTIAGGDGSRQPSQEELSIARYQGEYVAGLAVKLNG

Compound	Kd [1] [mM]	IC50 [2] [mM]
O=c1oc2c(O)c(O)cc3c(=O)oc4c(O)c(O)cc1c4c23 [EA, ellagic acid]	0.0015 ± 0.0004	–
O=C(O)c1ccccc1O [SA, salicylic acid]	–	7.85 ± 2.65
